Assay results taken from ChEMBL document CHEMBL5506053, “Explorations of Agonist Selectivity for the α9* nAChR with Novel Substituted Carbamoyl/Amido/Heteroaryl Dialkylpiperazinium Salts and Their Therapeutic Implications in Pain and Inflammation” (J Med Chem, 2024).
Activity calls are given as the source filed them. No cut-off for these calls is given here.

What was measured:
Oocyte [1] = assay: (§1) Inhibition of acetylcholine induced response in mouse muscle alpha1beta1epsilondelta nAChR expressed in xenopus laevis oocytes assessed as fold change at 30 uM preincubated with 3 uM acetylcholine followed by compound administration for 12 sec and measured 181 sec post washout by two-electrode voltage-clamp electrophysiology method relative to acetylcholine alone; type: cell-based
[2] = biological target: T1, Neuronal acetylcholine receptor; alpha3/beta4 (Homo sapiens) (UniProt P30926+P32297); assay: Agonist activity at human alpha3beta4 nAChR expressed in xenopus laevis oocytes at 100 uM measured after 120 secs by two-electrode voltage-clamp electrophysiology method relative to control; type: cell-based; conditions: Oocyte, time 120.0 sec
Oocyte [3] = assay: Agonist activity at mouse muscle alpha1beta1epsilondelta nAChR expressed in xenopus laevis oocytes at 30 uM measured after 120 secs by two-electrode voltage-clamp electrophysiology method relative to control; type: cell-based; conditions: time 120.0 sec
[4] = biological target: T2, Neuronal acetylcholine receptor subunit alpha-7 (Homo sapiens, UniProt P36544); assay: (§2) Agonist activity at human alpha7 nAChR expressed as xenopus laevis oocytes assessed as increase in receptor desensitization by measuring fold change in maximum response (Imax) measured after 120 secs by two-electrode voltage-clamp electrophysiology method relative to acetylcholine; type: cell-based; conditions: Oocyte, filed as agonist, time 120.0 sec
[5] = biological target: T1, Neuronal acetylcholine receptor; alpha3/beta4 (Homo sapiens); assay: as §1, with “human alpha3beta4” for “mouse muscle alpha1beta1epsilondelta”, “100” for “30”; type: cell-based; conditions: Oocyte
[6] = biological target: T3, Neuronal acetylcholine receptor; alpha9/alpha10 (Homo sapiens) (UniProt Q9UGM1+Q9GZZ6); assay: Agonist activity at human alpha9alpha10 nAChR expressed as xenopus laevis oocytes assessed as increase in receptor desensitization by measuring fold change in maximum response (Imax) measured after 120 secs by two-electrode voltage-clamp electrophysiology method relative to acetylcholine; type: cell-based; conditions: Oocyte, filed as agonist, time 120.0 sec
[7] = biological target: T4, Neuronal acetylcholine receptor; alpha4/beta2 (Homo sapiens) (UniProt P17787+P43681); assay: Agonist activity at human alpha4beta2 nAChR expressed in xenopus laevis oocytes at 30 uM measured after 120 secs by two-electrode voltage-clamp electrophysiology method relative to control; type: cell-based; conditions: Oocyte, time 120.0 sec
[8] = biological target: T2, Neuronal acetylcholine receptor subunit alpha-7; assay: as §2, with “peak current” for “maximum”, “at 30 uM incubated for” for “(Imax) measured after”, “secs presence of PNU-120596” for “secs”; type: cell-based; conditions: Oocyte, filed as agonist, time 120.0 sec
[9] = biological target: T5, Neuronal acetylcholine receptor subunit alpha-9 (Homo sapiens, UniProt Q9UGM1); assay: Partial agonist activity at human alpha9 nAChR expressed as xenopus laevis oocytes assessed as increase in receptor desensitization by measuring fold change in maximum response (Imax) measured after 120 secs by two-electrode voltage-clamp electrophysiology method relative to acetylcholine; type: cell-based; conditions: Oocyte, filed as partial agonist, time 120.0 sec
[10] = biological target: T4, Neuronal acetylcholine receptor; alpha4/beta2 (Homo sapiens); assay: as §1, with “human alpha4beta2” for “mouse muscle alpha1beta1epsilondelta”; type: cell-based; conditions: Oocyte
[11] = biological target: T3, Neuronal acetylcholine receptor; alpha9/alpha10 (Homo sapiens); assay: Partial agonist activity at human alpha9alpha10 nAChR expressed as xenopus laevis oocytes assessed as increase in receptor desensitization by measuring fold change in maximum response (Imax) measured after 120 secs by two-electrode voltage-clamp electrophysiology method relative to acetylcholine; type: cell-based; conditions: Oocyte, filed as partial agonist, time 120.0 sec
[12] = biological target: T5, Neuronal acetylcholine receptor subunit alpha-9; assay: Agonist activity at human alpha9 nAChR expressed as xenopus laevis oocytes assessed as increase in receptor desensitization by measuring fold change in maximum response (Imax) measured after 120 secs by two-electrode voltage-clamp electrophysiology method relative to acetylcholine; type: cell-based; conditions: Oocyte, filed as agonist, time 120.0 sec
[13] = biological target: Neuronal acetylcholine receptor; alpha9/alpha10 (Homo sapiens, UniProt Q9GZZ6+Q9UGM1); assay: Agonist activity at alpha9alpha10 nAChR (unknown origin); type: protein-complex assay
[14] = biological target: T5, Neuronal acetylcholine receptor subunit alpha-9; assay: Agonist activity at alpha9 nAChR (unknown origin)
[15] = biological target: T3, Neuronal acetylcholine receptor; alpha9/alpha10 (Homo sapiens); assay: Agonist activity at alpha9alpha10 nAChR (unknown origin) assessed as fold change in maximum response (Imax) relative to acetylcholine; type: protein-complex assay; conditions: filed as agonist
[16] = biological target: T2, Neuronal acetylcholine receptor subunit alpha-7; assay: Partial agonist activity at human alpha7 nAChR expressed as xenopus laevis oocytes assessed as increase in receptor desensitization by measuring fold change in maximum response (Imax) measured after 120 secs by two-electrode voltage-clamp electrophysiology method relative to acetylcholine; type: cell-based; conditions: Oocyte, filed as partial agonist, time 120.0 sec
[17] = Selectivity ratio for agonist activity at alpha7 nAChR (unknown origin) to agonist activity at alpha9 nAChR (unknown origin)
THP-1 [18] = assay: Cytotoxicity against monocytic human THP-1 cells assessed as effect on lactate dehydrogenase activity in supernatant; type: toxicity, cell-based
THP-1 [19] = assay: Induction of IL-1beta release in LPS primed monocytic human THP-1 cells at 10 uM primed with LPS for 5 hrs followed by compound addition and further incubated for 40 mins by ELISA; type: functional, cell-based
[20] = biological target: T2, Neuronal acetylcholine receptor subunit alpha-7; assay: Ratio for agonist activity at human alpha7 nAChR expressed as xenopus laevis oocytes assessed as increase in receptor desensitization by measuring fold change in peak current response to agonist activity at human alpha7 nAChR expressed as xenopus laevis oocytes assessed as increase in receptor desensitization by measuring fold change in peak current response in presence of PNU-120596; type: cell-based; conditions: Oocyte
PBMC [21] = assay: Inhibition of ATP-mediated IL-1beta release in LPS primed BzATP induced human PBMC cells at 100 fM primed with LPS for 3 hrs followed by BzATP and compound addition for 30 mins by ELISA; type: functional, cell-based
cells = conditions: Homo sapiens, THP-1
Description: Inhibition of ATP-mediated IL-1beta release in LPS primed BzATP induced monocytic human THP-1 cells primed with LPS for 5 hrs followed by BzATP and compound addition for 40 mins by ELISA

PBMC [22] = assay: Inhibition of ATP-mediated IL-1beta release in LPS primed BzATP induced human PBMC cells at 100 uM primed with LPS for 3 hrs followed by BzATP and compound addition for 30 mins by ELISA; type: functional, cell-based
[23] = biological target: T2, Neuronal acetylcholine receptor subunit alpha-7; assay: Agonist activity at alpha7 nAChR (unknown origin)
[24] = human, caco-2, 2 h
Description: Apparent permeability across apical to basolateral side in human Caco-2 cells at 5 ug/ml measured after 2 hrs by UPLC-MS/MS analysis

[25] = Metabolic stability in pooled BALB/c mouse plasma assessed as half life at 1 uM measured after 0 to 120 mins by UPLC-MS/MS analysis; type: ADME, cell-free; conditions: time 0-120 min

T5 sequence (Q9UGM1 whole entry): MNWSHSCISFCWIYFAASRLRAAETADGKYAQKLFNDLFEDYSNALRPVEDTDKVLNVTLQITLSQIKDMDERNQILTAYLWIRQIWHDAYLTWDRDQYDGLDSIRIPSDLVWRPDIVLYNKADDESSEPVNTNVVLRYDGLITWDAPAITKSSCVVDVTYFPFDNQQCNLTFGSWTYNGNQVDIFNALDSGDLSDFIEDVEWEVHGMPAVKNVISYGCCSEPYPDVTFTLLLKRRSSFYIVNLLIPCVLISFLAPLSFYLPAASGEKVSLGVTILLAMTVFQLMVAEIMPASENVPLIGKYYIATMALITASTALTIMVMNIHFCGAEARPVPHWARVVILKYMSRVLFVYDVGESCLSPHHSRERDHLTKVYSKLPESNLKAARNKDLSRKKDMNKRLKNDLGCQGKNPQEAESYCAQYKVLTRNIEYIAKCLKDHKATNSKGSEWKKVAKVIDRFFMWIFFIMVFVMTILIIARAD
T2 sequence (P36544 whole entry): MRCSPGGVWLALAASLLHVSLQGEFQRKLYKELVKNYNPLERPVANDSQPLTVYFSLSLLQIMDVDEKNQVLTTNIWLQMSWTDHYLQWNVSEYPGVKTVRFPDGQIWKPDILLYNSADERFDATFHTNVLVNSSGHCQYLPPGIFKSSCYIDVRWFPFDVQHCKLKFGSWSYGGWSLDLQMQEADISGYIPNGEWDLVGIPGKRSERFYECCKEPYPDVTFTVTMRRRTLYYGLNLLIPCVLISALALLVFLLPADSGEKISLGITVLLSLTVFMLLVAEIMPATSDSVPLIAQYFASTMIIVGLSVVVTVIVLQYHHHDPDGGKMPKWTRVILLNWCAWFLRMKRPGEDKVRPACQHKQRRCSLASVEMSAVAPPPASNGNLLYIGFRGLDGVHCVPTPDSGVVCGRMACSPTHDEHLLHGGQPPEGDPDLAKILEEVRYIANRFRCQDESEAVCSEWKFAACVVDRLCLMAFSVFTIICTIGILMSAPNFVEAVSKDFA
Neuronal acetylcholine receptor; alpha9/alpha10, sequence (Q9UGM1 whole entry): as the sequence (Q9UGM1 whole entry) above
Neuronal acetylcholine receptor; alpha9/alpha10, sequence (Q9GZZ6 whole entry): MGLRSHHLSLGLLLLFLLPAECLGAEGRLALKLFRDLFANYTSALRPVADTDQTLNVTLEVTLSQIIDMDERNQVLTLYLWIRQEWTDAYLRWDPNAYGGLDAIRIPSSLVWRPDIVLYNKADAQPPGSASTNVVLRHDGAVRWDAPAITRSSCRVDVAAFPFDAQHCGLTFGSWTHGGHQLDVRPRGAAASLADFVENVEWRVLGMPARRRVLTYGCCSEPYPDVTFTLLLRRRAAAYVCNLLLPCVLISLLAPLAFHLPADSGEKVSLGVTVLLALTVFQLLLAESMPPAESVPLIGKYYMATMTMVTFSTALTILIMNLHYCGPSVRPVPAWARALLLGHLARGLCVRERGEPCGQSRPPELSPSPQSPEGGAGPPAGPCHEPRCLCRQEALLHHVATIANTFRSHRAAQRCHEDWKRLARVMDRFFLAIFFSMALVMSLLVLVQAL

| SMILES | fold change (FC) (Oocyte [1]) | Activity [2] | Activity (Oocyte [3]) | fold change (FC) [4] | fold change (FC) [5] | fold change (FC) [6] | Activity [7] | fold change (FC) [8] | fold change (FC) [10] | fold change (FC) [12] | further results |
| --- | --- | --- | --- | --- | --- | --- | --- | --- | --- | --- | --- |
| CC[N+]1(CC)CCN(c2ccc(-n3cccc3)cc2)CC1 | 0.691 | < 1% | < 1% | 0.041 | 0.387 | 0.17 | < 1% | 0.08 | 0.709 |  | fold change (FC) [9]: 0.27 |
| CC[N+]1(C)CCN(c2ccc(NC(C)=O)cc2)CC1 | 0.409 | < 1% | < 1% |  | 0.798 |  | < 1% | 0.15 | 1.19 | 0.75 | fold change (FC) [11]: 3.3 |
| CC[N+]1(CC)CCN(c2ccc(C#N)cc2)CC1 |  |  |  |  |  |  |  |  |  |  | EC50 [13]: 2570 nM; EC50 [14]: 368 nM; fold change (FC) [15]: 0.94 |
| CC[N+]1(CC)CCN(c2ccc(C(=O)Nc3cccc(C)c3)cc2)CC1 | 0.555 | < 1% | < 1% |  | 1.04 | 1.12 | < 1% | 0.17 | 0.807 | 1.25 | fold change (FC) [16]: 0.6 |
| CC[N+]1(CC)CCN(c2ccc(C(N)=O)cc2)CC1 |  |  |  |  |  | 1.19 |  | 0.18 |  | 0.8 | Selectivity ratio [17]: 66; fold change (FC) [16]: 0.34 |
| CC(=O)OCC[N+](C)(C)C [ACETYLCHOLINE] |  |  |  |  |  |  |  |  |  |  | Activity (THP-1 [18]): Non-Toxic; Activity (THP-1 [19]): inactive |
| CC[N+]1(CC)CCN(c2ccc(-c3ncco3)cc2)CC1 | 0.353 | < 1% | < 1% |  | 0.507 | 0.83 | < 1% | 0.05 | 0.823 | 1.29 | fold change (FC) [16]: 0.12 |
| Cc1cccc(NC(=O)c2ccc(N3CC[N+](C)(C)CC3)cc2)n1 | 0.709 | < 1% | < 1% | 0.57 | 0.838 | 0.89 | < 1% | 0.16 | 0.912 |  | fold change (FC) [9]: 0.51 |
| CC[N+]1(CC)CCN(c2ccc(C(=O)Nc3ccccn3)cc2)CC1 | 0.506 | < 1% | < 1% | 0.46 | 0.789 | 0.94 | < 1% | 0.12 | 0.697 | 1.18 |  |
| CC[N+]1(CC)CCN(c2ccc(NC(=O)c3cccc(C)n3)cc2)CC1 | 0.38 | < 1% | < 1% | 0.14 | 0.415 |  | < 1% | 31.8 | 1.07 | 1.24 | fold change (FC) [11]: 0.53; Ratio [20]: 227 |
| CC[N+]1(CC)CCN(c2ccc(-n3cccn3)cc2)CC1 | 0.59 | < 1% | < 1% |  | 0.736 |  | < 1% | 0.17 | 0.913 | 1.01 | fold change (FC) [11]: 0.59; fold change (FC) [16]: 0.088 |
| CCCNC(=O)c1ccc(N2CC[N+](CC)(CC)CC2)cc1 | 0.709 | < 1% | < 1% | 0.38 | 0.65 |  | < 1% | 0.19 | 0.946 | 1.13 | fold change (FC) [11]: 0.79 |
| CC[N+]1(CC)CCN(c2ccc(C(=O)Nc3cccc(C)n3)cc2)CC1.[I-] |  |  |  |  |  |  |  |  |  |  | inhibition (PBMC [21]): Active; EC50 [13]: 980 nM; Activity (THP-1 [18]): Non-Toxic; EC50 [14]: 660 nM; IC50 (cells): 14000 nM; inhibition (PBMC [22]): inactive; EC50 [23]: 6400 nM; Activity (THP-1 [19]): inactive |
| CC(C)NCC(O)COc1cccc2ccccc12 (stereo unspecified) [PROPRANOLOL] |  |  |  |  |  |  |  |  |  |  | Papp [24]: 20 10^-6 cm/s |
| CCN(CC)CCOC(=O)c1ccc(N)cc1 [PROCAINE] |  |  |  |  |  |  |  |  |  |  | t1/2 [25]: < 5 min |
| C[C@H]1O[C@@H](O[C@H]2[C@@H](O)C[C@H](O[C@H]3[C@@H](O)C[C@H](O[C@H]4CC[C@@]5(C)[C@H](CC[C@@H]6[C@@H]5C[C@@H](O)[C@]5(C)[C@@H](C7=CC(=O)OC7)CC[C@]65O)C4)O[C@@H]3C)O[C@@H]2C)C[C@H](O)[C@@H]1O [DIGOXIN] |  |  |  |  |  |  |  |  |  |  | Papp [24]: 5.4 10^-6 cm/s |
| CC[N+]1(CC)CCN(c2ccc(C(=O)N3CCCC3)cc2)CC1 | 0.541 | < 1% | < 1% | 0.06 | 0.849 | 0.56 | < 1% | 0.01 | 0.919 |  | fold change (FC) [9]: 0.69 |
